Consider 13 compounds from patent publication US20240122179A1, “AUXINIC HERBICIDES AND METHODS OF USE THEREOF” (CORTEVA AGRISCIENCE LLC, priority 2021, published 2024).

Read-outs that look alike come from different tables or passages of the source.

Common to all, as to experiment: Postemergence herbicide evaluation, percent reduction in plant size vs untreated control, 21 days after treatment
In one assay the test system is Amaranthus rudis (AMATA). It counts as in vivo, Amaranthus rudis (tall water hemp). The settings on record: Amaranthus tuberculatus, post-emergence, 504 h, AMATA, postemergence, read-out: Control/Injury; for pest or weed control at 280 g/ha: rate 280 g ae/ha; for pest or weed control at 140 g/ha: rate 140 g ae/ha. Here is the method:
(§1) Plants were grown in a soil media composed of 90% by volume Promix BX (Premier Tech Horticulture, Quakertown, PA) and 10% Profile Greens Grade (Profile Products LLC, Buffalo Grove, IL). Promix BX contains approximately 83% Sphagnum Peat Moss, 13% Perlite, 5% vermiculite, and proprietary amounts of limestone, starter fertilizer, and wetting agent. Profile Greens Grade is a sand-sized granule formed from calcining illite and montmorillonite clay. Several seeds of each species were planted in 10 cm square pots and top watered twice daily. Plant material was propagated in a warm greenhouse with temperature ranging from 25 to 28° C. and 50 to 60% relative humidity at the Corteva Global Headquarters (Indianapolis, Indiana, USA). Natural light was supplemented with 1000-watt metal halide overhead lamps with an average illumination of 500 μE m^−2 s^−1 photosynthetic active radiation for 16 consecutive hours each day. Plants were top-watered prior to herbicide application and sub-watered after herbicide application.
(§2) Appropriate amounts of test materials were weighed out into glass vials in their technical form to deliver either 140 or 280 g acid equivalent (ae)/ha. The samples were dissolved in 3 ml of Solvent 1. Solvent 1 is 97% acetone and 3% dimethyl sulfoxide and serves as a general-purpose solvent (GPS) for dissolving technical materials. […] The samples were then diluted to their final concentration using 17 ml of solvent 2 for a total of 20 ml of spray solution. Solvent 2 contains 41.58% GPS, 45.53% water, 11.88% isopropyl alcohol, 0.99% crop oil concentrate and 0.02% Trition X-155 surfactant. All percentages are listed on a volume basis. Dicamba diglycolamine was applied as a formulated herbicide, Clarity™ and diluted with solvent 2 to compare all materials in the same spray solution.
(§3) Herbicide applications were made to 3 to 4 replicates of each plant species at the 2 to 8 leaf stage, depending on the species. Treatments were applied with a research track-sprayer (Generation III Research Sprayer manufactured by DeVries Manufacturing in Hollandale, MN, USA) calibrated to deliver a spray volume of 187 L/ha. The track-sprayer was fitted with an 8003E nozzle from Spray Systems Company (North Avenue and Schmale Road, P.O. Box 7900, Wheaton, IL 60187), and used a spray pressure of 276 kPa pressure and a speed of 3.1 km/h. The nozzle height was 46 cm above the plant canopy. The experimental design used for the trials was a randomized complete block with 3 or 4 replications per treatment. After application, plants were placed on carts according to the randomization and returned to the greenhouse. Plants were sub-watered after treatment with Indianapolis city water or fertilized three times a week with a commercial fertilizer solution (Jack's Professional 15-5-15 4 Ca 2 Mg fertilizer (manufactured by JR PETERS INC., 6656 Grant Way, Allentown, PA 18106; www.jrpeters.com). Percent visual control assessments were made on a scale of 0 to 100% (where 0 was no control and 100 was complete plant death) at 7, 14, and 21 days after treatment.
In conformity with the methods outlined in Example 49, the effect of representative experimental compounds on the growth of Amaranthus rudis (AMATA), common name tall water hemp, was determined at 2 different levels (respectively, 140 and 280 g acid equivalent (ae)/ha) of the experimental actives tested. Plants were treated with one of the compounds, a control plant was not treated. Twenty-one days after treatment, the plants were measured. The data is present as a percent reduction in plant size relative to the untreated control.

The test system of the next assay is Kochia scoparia (KCHSC). It counts as in vivo. The conditions noted are these: KCHSC, postemergence; for pest or weed control at 140 g/ha / pest or weed control at 280 g/ha: Bassia scoparia, post-emergence, 504 h, read-out: Control/Injury; for pest or weed control at 280 g/ha: rate 280 g ae/ha. Here is the method: as §1, §2, §3
In conformity with the methods outlined in Example 49, the effect of representative experimental compounds on the growth of Kochia scoparia (KCHSC) was determined at 2 different levels (respectively, 140 and 280 g acid equivalent (ae)/ha) of the experimental actives tested. Plants were treated with one of the compounds, a control plant was not treated. Twenty-one days after treatment, the plants were measured. The data is present as a percent reduction in plant size relative to the untreated control.

In assay [1] the test system is Ambrosia artemisiifolia (AMBEL). In kind it is in vivo, Ambrosia artemisiifolia (common ragweed). The settings on record: post-emergence, 504 h, AMBEL, postemergence, read-out: Control/Injury; for pest or weed control at 280 g/ha: rate 280 g ae/ha; for pest or weed control at 140 g/ha: rate 140 g ae/ha. The protocol: as §1, §2, §3
In conformity with the methods outlined in Example 49, the effect of representative experimental compounds on the growth of Ambrosia artemisiifolia (AMBEL), (common ragweed), was determined at 2 different levels (respectively, 140 and 280 g acid equivalent (ae)/ha) of the experimental actives tested. Plants were treated with one of the compounds, a control plant was not treated. Twenty-one days after treatment, the plants were measured. The data is present as a percent reduction in plant size relative to the untreated control.

For assay [2], the system named is Amaranthus palmeri (AMAPA). In kind it is in vivo, Amaranthus palmeri (Palmer amaranth). The conditions noted are these: post-emergence, 504 h, postemergence, read-out: Control/Injury; for pest or weed control at 140 g/ha: rate 140 g ae/ha; for pest or weed control at 280 g/ha: rate 280 g ae/ha. Here is the method: as §1, §2, §3
In conformity with the methods outlined in Example 49, the effect of representative experimental compounds on the growth of Amaranthus palmeri (AMAPA), common name, Palmer amaranth, was determined at 2 different levels (respectively, 140 and 280 g acid equivalent (ae)/ha) of the experimental actives tested. Plants were treated with one of the compounds, a control plant was not treated. Twenty-one days after treatment, the plants were measured. The data is present as a percent reduction in plant size relative to the untreated control.

Assay [3] has as its system Conyza canadensis (L.) (ERICA). It counts as in vivo, Conyza canadensis (L.) (Horseweed). The conditions noted are these: Erigeron canadensis, post-emergence, 504 h, ERICA, postemergence, read-out: Control/Injury; for pest or weed control at 140 g/ha: rate 140 g ae/ha; for pest or weed control at 280 g/ha: rate 280 g ae/ha. The protocol:
as §1, §2, §3
In conformity with the methods outlined in Example 49, the effect of representative experimental compounds on the growth of Conyza canadensis (L.), (ERICA), common name, Horseweed, was determined at 2 different levels (respectively, 140 and 280 g acid equivalent (ae)/ha) of the experimental actives tested. Plants were treated with one of the compounds, a control plant was not treated. Twenty-one days after treatment, the plants were measured. The data is present as a percent reduction in plant size relative to the untreated control.

Where [4] appears, read: R-AMAPA, percent reduction vs untreated control, 21 days after treatment.
The mark [5] stands for this setting: rate 140 g ae/ha, percent reduction vs untreated, 21 days after treatment.
Setting [6] is: percent reduction vs untreated, 21 days after treatment.
[7] abbreviates: percent reduction vs untreated control, 21 days after treatment.

With `COc1c(Cl)ccc(Cl)c1C(=O)OCc1ccccc1` [Compound A-44], the pest or weed control at 280 g/ha was determined as 60% in the assay with Amaranthus rudis (AMATA), 90% with Kochia scoparia (KCHSC), 80% in assay [1] and 85% in assay [2] (setting [4]). Besides, the pest or weed control at 140 g/ha was determined as 60% in the assay on Kochia scoparia (KCHSC) (rate 140 g ae/ha) and 80% in assay [2] (setting [4]). In the assay with Kochia scoparia (KCHSC) (rate 140 g ae/ha), this compound came in with a Control/Injury of 60.

With `COc1c(Cl)ccc(Cl)c1C(=O)n1ncc2ccccc21` [Compound A-113], the pest or weed control at 140 g/ha in the assay on Amaranthus rudis (AMATA) worked out at 50%; in the assay with Kochia scoparia (KCHSC) (setting [5]) it was 85%; in assay [1] it was 70%; in assay [3], 50%; in assay [2] (AMAPA), 40%. Also, the pest or weed control at 280 g/ha is 63% in the assay with Amaranthus rudis (AMATA); 93% with Kochia scoparia (KCHSC) (setting [6]); 90% in assay [1]; 99% in assay [3]; 70% in assay [2] (AMAPA).

In the case of `COc1c(Cl)ccc(Cl)c1C(=O)O/N=C(\N)c1cccc(Cl)c1` [Compound A-12], in assay [3] (setting [7]), the pest or weed control at 140 g/ha is 72% and the pest or weed control at 280 g/ha is 87%.

`COc1c(Cl)ccc(Cl)c1C(=O)NOc1ccc([N+](=O)[O-])cc1` [Compound A-97]: the pest or weed control at 140 g/ha is 55% in the assay on Amaranthus rudis (AMATA); 73% in the assay with Kochia scoparia (KCHSC) (setting [5]); 73% in assay [1]; 18% in assay [3]; 75% in assay [3] (setting [7]); 50% in assay [2] (AMAPA). The pest or weed control at 280 g/ha came to 68% in the assay with Amaranthus rudis (AMATA); 88% in the assay on Kochia scoparia (KCHSC) (setting [6]); 90% in assay [1]; 40% in assay [3]; 70% in assay [3] (setting [7]); 65% in assay [2] (AMAPA).

`COc1c(Cl)ccc(Cl)c1C(=O)O` [Dicamba, 3,6-dichloro-2-methoxybenzoic acid, reference compound]: the pest or weed control at 140 g/ha in the assay on Amaranthus rudis (AMATA) is 99%; in the assay on Kochia scoparia (KCHSC) (setting [5]), 94%; in assay [1], 97%; in assay [3], 94%; in assay [2] (AMAPA), 78%. In addition, the pest or weed control at 280 g/ha in the assay with Amaranthus rudis (AMATA) was determined as 90%; with Kochia scoparia (KCHSC) (setting [6]), 97%; in assay [1], 100%; in assay [3], 100%; in assay [2] (AMAPA) it was 94%.

For `COc1c(Cl)ccc(Cl)c1C(=O)Nc1ccncc1` [Compound A-61], the pest or weed control at 140 g/ha was 85% with Amaranthus rudis (AMATA), 98% with Kochia scoparia (KCHSC) (rate 140 g ae/ha), 99% in assay [1] and 85% in assay [2] (setting [4]). In addition, the pest or weed control at 280 g/ha in the assay on Amaranthus rudis (AMATA) is 90%; with Kochia scoparia (KCHSC) it was 99%; in assay [1] it was 98%; in assay [2] (setting [4]) it was 100%.

With `COc1c(Cl)ccc(Cl)c1C(=O)O/N=C(\N)c1ccc2[nH]ccc2c1` [Compound A-28], in assay [3] (setting [7]), the pest or weed control at 140 g/ha was 70% and the pest or weed control at 280 g/ha turned out to be 83%.

As to `COc1c(Cl)ccc(Cl)c1C(=O)O/N=C/c1ccc(/C=N/OC(=O)c2c(Cl)ccc(Cl)c2OC)cc1` [Compound A-57], the pest or weed control at 140 g/ha in the assay with Amaranthus rudis (AMATA) was 95%; in the assay on Kochia scoparia (KCHSC) (rate 140 g ae/ha), 92%; in assay [1], 95%. Also, the values for the pest or weed control at 280 g/ha (in the assay on Kochia scoparia (KCHSC); in assay [1]; in assay [2] (setting [4])) were 100%, 98% and 100%, respectively.

For `COc1c(Cl)ccc(Cl)c1C(=O)O/N=C(\N)c1cccc2ccccc12` [Compound A-30], in assay [3] (setting [7]), the pest or weed control at 140 g/ha was determined as 50% and the pest or weed control at 280 g/ha was determined as 22%.

`COc1c(Cl)ccc(Cl)c1C(=O)O/N=C(\C)c1cccnc1` [Compound A-47]: the pest or weed control at 280 g/ha is 75% in the assay on Amaranthus rudis (AMATA), 100% with Kochia scoparia (KCHSC), 100% in assay [1] and 95% in assay [2] (setting [4]). In addition, the pest or weed control at 140 g/ha in the assay with Kochia scoparia (KCHSC) (rate 140 g ae/ha) worked out at 98%; in assay [1], 85%; in assay [2] (setting [4]), 90%.

Regarding `COc1c(Cl)ccc(Cl)c1C(=O)O/N=C(\N)c1cc(Cl)cc(Cl)c1` [Compound A-16], in assay [3] (setting [7]), the pest or weed control at 140 g/ha is 68% and the pest or weed control at 280 g/ha turned out to be 78%.

Turning to `COc1c(Cl)ccc(Cl)c1C(=O)O/N=C(\N)c1ccc2[nH]cnc2c1` [Compound A-29], in assay [3] (setting [7]), the pest or weed control at 140 g/ha was 40% and the pest or weed control at 280 g/ha is 40%.

Turning to `COc1c(Cl)ccc(Cl)c1C(=O)C(Cl)(Cl)Cl` [Compound A-96], in assay [3] (setting [7]), the pest or weed control at 140 g/ha was found to be 0% and the pest or weed control at 280 g/ha amounted to 0%.
